For 32 compounds, Ki results are on record in patent US9802937B2, “Substituted pyrazolo{4,3-D}pyrimidines as kinase inhibitors” (ORIGENIS GMBH, priority 2011, dated 2017).

The test addresses T1, SYK kinase (Homo sapiens, UniProt P43405).
T1 construct: purchased Invitrogen, Carlsbad
In words: SYK Assay (OMNIA KINASE ASSAY, SOX peptide fluorescence). The format is biochemical. The note with it: apparent Ki calculated from the IC50 using the Cheng-Prusoff equation; 1 mM ATP, 30° C.; read-out: SYK Activities: Ki. The protocol: In the assay OMNIA® KINASE ASSAY by Invitrogen Corporation (Carlsbad) the effect of invention of a compound on the phosphorylation is determined by measurement of fluorescence intensity of a chelation-enhanced fluorophore called SOX. Upon phosphorylation of the peptide by the kinase of interest, Mg2+ is chelated to form a bridge between the SOX moiety and the phosphate group that is transferred to the specific tyrosine on the peptide. The fluorescence intensity is directly proportional to the amount of peptide phosphorylation.
To the wells of an 384 well small volume plate (Greiner, Frickenhausen) are added (i) the compound under test in 5% DMSO/distilled water (2 μl), (ii) 16 μl of the master mix containing ATP, DTT, Kinase Reaction Buffer, Omina Peptide Substrate Tyr 7 resulting in a final concentration of 1 mM ATP, 0.2 mM DTT and 10 μM Peptide Substrate.
The Master Mix and the assay plate was incubated to reaction temperature before the measurement (30° C.). The reaction was started with addition of (iii) 2 μl 4 μg/ml SYK kinase (Invitrogen, Carlsbad). During measurement fluorescence intensitiy readings were collected using a TECAN M1000 at a wavelength of λex 360/λem 485 nm every 30 s for 30 minutes. The reaction velocity was plotted versus the inhibitor concentration to determine the […] using XLFit 5.0 (IDBS, Guildford) to fit to a sigmoidal dose response curve, and the apparent Ki values were calculated from the IC50 using the Cheng-Prusoff equation (Cheng, Y.; Prusoff, W. H. Biochem. Pharmacol. 22, 3099-3108, 1973).

On to `COC(=O)c1ccc(-c2nc(Nc3ccc4c(c3)NC(=O)CC4)c3[nH]ncc3n2)cc1` [Example #215, methyl 4-(7-((2-oxo-1,2,3,4-tetrahydroquinolin-7-yl)amino)-1H-pyrazolo[4,3-d]pyrimidin-5-yl)benzoate], for which the Ki is 0.1 to 1 µM.
As for `COC(=O)c1cccc(-c2nc(Nc3ccc4c(c3)NC(=O)CS4)c3[nH]ncc3n2)c1` [Example #216, methyl 3-(7-((3-oxo-3,4-dihydro-2H-benzo[b][1,4]thiazin-6-yl)amino)-1H-pyrazolo[4,3-d]pyrimidin-5-yl)benzoate], the figure is 0.01 to 0.1 µM.
As for `COC(=O)c1cccc(-c2nc(Nc3ccc4c(c3)NC(=O)CCC4)c3[nH]ncc3n2)c1` [Example #217, methyl 3-(7-((2-oxo-2,3,4,5-tetrahydro-1H-benzo[b]azepin-8-yl)amino)-1H-pyrazolo[4,3-d]pyrimidin-5-yl)benzoate], the figure is 0.1 to 1 µM.
In the case of `COc1ccc(Nc2nc(-c3cccc(S(F)(F)(F)(F)F)c3)nc3cn[nH]c23)cc1OC` [Example #219, N-(3,4-dimethoxyphenyl)-5-(3-(pentafluorosulfanyl)phenyl)-1H-pyrazolo[4,3-d]pyrimidin-7-amine] it was 0.1 to 1 µM.
On to `FS(F)(F)(F)(F)c1cccc(-c2nc(Nc3ccc(N4CCOCC4)cc3)c3[nH]ncc3n2)c1` [Example #220, 5-(3-(pentafluorosulfanyl)phenyl)-N-(4-morpholinophenyl)-1H-pyrazolo[4,3-d]pyrimidin-7-amine], for which the Ki is 0.01 to 0.1 µM.
Turning to `CN1CCN(c2ccc(Nc3nc(-c4cccc(S(F)(F)(F)(F)F)c4)nc4cn[nH]c34)cc2)CC1` [Example #221, N-(4-(4-methylpiperazin-1-yl)phenyl)-5-(3-(pentafluorosulfanyl)phenyl)-1H-pyrazolo[4,3-d]pyrimidin-7-amine], the Ki is 0.01 to 0.1 µM.
As for `O=C1CCc2ccc(Nc3nc(-c4cccc(S(F)(F)(F)(F)F)c4)nc4cn[nH]c34)cc2N1` [Example #222, 7-((5-(3-(pentafluorosulfanyl)phenyl)-1H-pyrazolo[4,3-d]pyrimidin-7-yl)amino)-3,4-dihydroquinolin-2(1H)-one], the figure is 0.1 to 1 µM; as for `COc1ccc(Nc2nc(-c3cccc(SC)c3)nc3cn[nH]c23)cc1OC` [Example #223, N-(3,4-dimethoxyphenyl)-5-(3-(methylthio)phenyl)-1H-pyrazolo[4,3-d]pyrimidin-7-amine], 0.01 to 0.1 µM.
In the case of `CSc1cccc(-c2nc(Nc3ccc(N4CCOCC4)cc3)c3[nH]ncc3n2)c1` [Example #224, 5-(3-(methylthio)phenyl)-N-(4-morpholinophenyl)-1H-pyrazolo[4,3-d]pyrimidin-7-amine] it was 0.1 to 1 µM; in that of `COc1ccc(Nc2nc(-c3cccc(OC(F)(F)F)c3)nc3cn[nH]c23)cc1OC` [Example #226, N-(3,4-dimethoxyphenyl)-5-(3-(trifluoromethoxy)phenyl)-1H-pyrazolo[4,3-d]pyrimidin-7-amine], 0.01 to 0.1 µM; in that of `FC(F)(F)Oc1cccc(-c2nc(Nc3ccc(N4CCOCC4)cc3)c3[nH]ncc3n2)c1` [Example #227, N-(4-morpholinophenyl)-5-(3-(trifluoromethoxy)phenyl)-1H-pyrazolo[4,3-d]pyrimidin-7-amine], 0.01 to 0.1 µM.
In the case of `COc1ccc(Nc2nc(-c3cccc(C(F)(F)F)c3)nc3cn[nH]c23)cc1OC` [Example #228, N-(3,4-dimethoxyphenyl)-5-(3-(trifluoromethyl)phenyl)-1H-pyrazolo[4,3-d]pyrimidin-7-amine] it was 0.01 to 0.1 µM; in that of `FC(F)(F)c1cccc(-c2nc(Nc3ccc(N4CCOCC4)cc3)c3[nH]ncc3n2)c1` [Example #229, N-(4-morpholinophenyl)-5-(3-(trifluoromethyl)phenyl)-1H-pyrazolo[4,3-d]pyrimidin-7-amine], 0.01 to 0.1 µM.
As for `COc1ccc(Nc2nc(-c3cccc(Cl)c3)nc3cn[nH]c23)cc1OC` [Example #230, 5-(3-chlorophenyl)-N-(3,4-dimethoxyphenyl)-1H-pyrazolo[4,3-d]pyrimidin-7-amine], the Ki was 0.01 to 0.1 µM.
For the compound `Clc1cccc(-c2nc(Nc3ccc(N4CCOCC4)cc3)c3[nH]ncc3n2)c1` [Example #231, 5-(3-chlorophenyl)-N-(4-morpholinophenyl)-1H-pyrazolo[4,3-d]pyrimidin-7-amine], the Ki is 0.01 to 0.1 µM.
On to `CSc1cccc(-c2nc(Nc3ccc4c(c3)NC(=O)CC4)c3[nH]ncc3n2)c1` [Example #236, 7-((5-(3-(methylthio)phenyl)-1H-pyrazolo[4,3-d]pyrimidin-7-yl)amino)-3,4-dihydroquinolin-2(1H)-one], for which the Ki is 0.01 to 0.1 µM.
In the case of `COC(=O)c1ccc(-c2nc(Nc3ccc(N4CCOCC4)cc3)c3[nH]ncc3n2)cc1` [Example #242, methyl 4-(7-((4-morpholinophenyl)amino)-1H-pyrazolo[4,3-d]pyrimidin-5-yl)benzoate] it was 0.01 to 0.1 µM.
As to `O=C(O)c1ccc(-c2nc(Nc3ccc(N4CCOCC4)cc3)c3[nH]ncc3n2)cc1` [Example #243, 4-(7-((4-morpholinophenyl)amino)-1H-pyrazolo[4,3-d]pyrimidin-5-yl)benzoic acid], the Ki was less than 0.01 µM.
As for `COc1ccc(Nc2nc(-c3ccc(C(=O)O)cc3)nc3cn[nH]c23)cc1OC` [Example #244, 4-(7-((3,4-dimethoxyphenyl)amino)-1H-pyrazolo[4,3-d]pyrimidin-5-yl)benzoic acid], the figure is less than 0.01 µM; as for `Cc1nc2cc(Nc3nc(-c4cccs4)nc4cn[nH]c34)ccc2[nH]1` [Example #245, N-(2-methyl-1H-benzo[d]imidazol-5-yl)-5-(thiophen-2-yl)-1H-pyrazolo[4,3-d]pyrimidin-7-amine], less than 0.01 µM; as for `CC(=O)N1CCN(c2ccc(Nc3nc(-c4cccc(S(C)(=O)=O)c4)nc4cn[nH]c34)cc2)CC1` [Example #246, 1-(4-(4-((5-(3-(methylsulfonyl)phenyl)-1H-pyrazolo[4,3-d]pyrimidin-7-yl)amino)phenyl)piperazin-1-yl)ethan-1-one], less than 0.01 µM.
For `COc1ccc(Nc2nc(-c3cccc(S(C)(=O)=O)c3)nc3cn[nH]c23)cc1OC` [Example #249, N-(3,4-dimethoxyphenyl)-5-(3-(methylsulfonyl)phenyl)-1H-pyrazolo[4,3-d]pyrimidin-7-amine], the Ki is 0.01 to 0.1 µM.
As for `CS(=O)(=O)c1cccc(Nc2nc(-c3cccc(S(C)(=O)=O)c3)nc3cn[nH]c23)c1` [Example #253, N,5-bis(3-(methylsulfonyl)phenyl)-1H-pyrazolo[4,3-d]pyrimidin-7-amine], the Ki was 0.01 to 0.1 µM.
As for `CC(=O)N1CCN(c2ccc(Nc3nc(-c4cnc5cc[nH]c5c4)nc4cn[nH]c34)cc2)CC1` [Example #256, 1-(4-(4-((5-(1H-pyrrolo[3,2-b]pyridin-6-yl)-1H-pyrazolo[4,3-d]pyrimidin-7-yl)amino)phenyl)piperazin-1-yl)ethan-1-one], the figure is less than 0.01 µM; as for `c1cc2ncc(-c3nc(Nc4ccc(N5CCOCC5)cc4)c4[nH]ncc4n3)cc2[nH]1` [Example #258, N-(4-morpholinophenyl)-5-(1H-pyrrolo[3,2-b]pyridin-6-yl)-1H-pyrazolo[4,3-d]pyrimidin-7-amine], 0.01 to 0.1 µM; as for `Cc1nc2cc(Nc3nc(-c4cnc5cc[nH]c5c4)nc4cn[nH]c34)ccc2[nH]1` [Example #259, N-(2-methyl-1H-benzo[d]imidazol-5-yl)-5-(1H-pyrrolo[3,2-b]pyridin-6-yl)-1H-pyrazolo[4,3-d]pyrimidin-7-amine], 0.1 to 1 µM.
On to `CN(C)S(=O)(=O)c1ccc(Nc2nc(-c3cccs3)nc3cn[nH]c23)cc1` [Example #260, N,N-dimethyl-4-((5-(thiophen-2-yl)-1H-pyrazolo[4,3-d]pyrimidin-7-yl)amino)benzenesulfonamide], for which the Ki was 0.01 to 0.1 µM.
In the case of `c1cc(Nc2nc(-c3cccs3)nc3cn[nH]c23)cc(-n2nccn2)c1` [Example #262, N-(3-(2H-1,2,3-triazol-2-yl)phenyl)-5-(thiophen-2-yl)-1H-pyrazolo[4,3-d]pyrimidin-7-amine] it was 0.1 to 1 µM; in that of `c1csc(-c2nc(Nc3ccc(-n4nccn4)cc3)c3[nH]ncc3n2)c1` [Example #263, N-(4-(2H-1,2,3-triazol-2-yl)phenyl)-5-(thiophen-2-yl)-1H-pyrazolo[4,3-d]pyrimidin-7-amine], 0.1 to 1 µM; in that of `CN(C)S(=O)(=O)c1cccc(Nc2nc(-c3cccs3)nc3cn[nH]c23)c1` [Example #264, N,N-dimethyl-3-((5-(thiophen-2-yl)-1H-pyrazolo[4,3-d]pyrimidin-7-yl)amino)benzenesulfonamide], 0.1 to 1 µM.
In the case of `O=S(=O)(c1cccc(Nc2nc(-c3cccs3)nc3cn[nH]c23)c1)N1CCOCC1` [Example #266, N-(3-(morpholinosulfonyl)phenyl)-5-(thiophen-2-yl)-1H-pyrazolo[4,3-d]pyrimidin-7-amine] it was 0.1 to 1 µM; in that of `O=S(=O)(c1cccc(Nc2nc(-c3cccs3)nc3cn[nH]c23)c1)C(F)(F)F` [Example #267, 5-(thiophen-2-yl)-N-(3-((trifluoromethyl)sulfonyl)phenyl)-1H-pyrazolo[4,3-d]pyrimidin-7-amine], 0.1 to 1 µM.
